Source: publication PMC11638965, “Leveraging Dual-Ligase Recruitment to Enhance Protein Degradation via a Heterotrivalent Proteolysis Targeting Chimera” (Journal of the American Chemical Society, 2024)
pEC50: −log10 of the molar value. Where two headings read alike, the source gives them in different places.

Tests used:
BRD2 = molecular target: T1, BRD2 (Homo sapiens, UniProt P25440); test: Live cell kinetic HiBiT degradation assay, HiBiT-BRD2 HEK293 cells; format: cell-based; settings: HiBiT-BRD2 CRISPR knock-in HEK293 cells, live cell kinetic degradation, 24 h; read-out: Dmax 50 BRD2
T1 construct: HiBiT, is appended to the N-terminus of endogenous BRD2, BRD3, and BRD4; endogenous in cells
Description: (§1) HEK293 HiBiT-BRD2 (LgBiT stable), HEK293 HiBiT-BRD3 (LgBiT stable), and HEK293 HiBiT-BRD4 (LgBiT stable) were created using CRISPR/Cas9 to insert at HiBiT tag at the N-terminal genomic loci of BRD2, BRD3, or BRD4 in a cell line stably expressing LgBiT protein as described previously.[23]
(§2) For kinetic degradation experiments, HEK293 HiBiT-BRD2, 3, or 4 (LgBiT stable) cells and HEK293 HiBiT-BRD4 (LgBiT) CRBN KO and VHL KO cells were plated at 20,000 cells/well in DMEM +10% FBS in white 96-well tissue culture plates and allowed to adhere overnight. The next day, media was removed and 90 μL of prewarmed CO2-independent medium (Gibco) containing Endurazine (Promega) at a 1:100 dilution from stock was added. Plates were incubated at 37 °C for 3 h to allow luminescence to equilibrate. A threefold dilution series of each PROTAC at 10x the desired final concentration was prepared (with the amount of DMSO in each treatment condition kept constant). After luminescence equilibration, a preread luminescence measurement was taken (prior to compound addition) to allow for baseline normalization to account for possible plating differences. Cells were then treated with 10 μL of the prepared PROTAC dilution series (in triplicate or quadruplicate). Treated plates were placed in a GloMax Discover luminometer (Promega) prewarmed to 37 °C and luminescence measurements were obtained every 7 min for 24 h. Kinetic degradation plots were obtained by first normalizing time course luminescence readings in each well to the preread measurement, then to the average value of the DMSO only control at each time point. Data was analyzed using GraphPad Prism (version 8) and excel. Dmax values were identified as the lowest luminescence reading in each well. Rate constant values were calculated using a one phase exponential decay Y = (Y0-Plateau) e(K*^X) + Plateau using Prism (Y0 constrained to 1). Dmax 50 values were calculated by plotting Dmax as a function of concentration, then fitting plots using the following equation: [drawing 1] to determine IC50.

BRD3 = molecular target: T2, BRD3 (Homo sapiens, UniProt Q15059); test: Live cell kinetic HiBiT degradation assay, HiBiT-BRD3 HEK293 cells; format: cell-based; settings: HiBiT-BRD3 CRISPR knock-in HEK293 cells, live cell kinetic degradation, 24 h; read-out: Dmax 50 BRD3
T2 construct: HiBiT, is appended to the N-terminus of endogenous BRD2, BRD3, and BRD4; endogenous in cells
Description: as §1, §2

BRD4 = BRD4 (Homo sapiens, UniProt O60885); test: Live cell kinetic HiBiT degradation assay, HiBiT-BRD4 HEK293 cells (parental, CRBN KO, VHL KO); format: cell-based; settings: for fold drop in BRD4 degradation potency (Dmax 50) when CRBN recruitment was outcompeted by pomalidomide: 20 μM pomalidomide vs vehicle, HiBiT-BRD4 HEK293 cells; for pEC50: HiBiT-BRD4 CRISPR knock-in HEK293 cells, live cell kinetic degradation, 24 h, read-out: Dmax 50 BRD4
Description: as §1, §2
HiBiT-BRD4 (LgBiT stable) HEK293 cells (Promega) were used to generate both VHL KO HiBiT-BRD4 (LgBiT stable) and CRBN KO HiBiT-BRD4 (LgBiT stable) cell lines. For VHL, gRNAs targeting exon 1 ([…]) and exon 2 ([…]) and for CRBN, gRNAs targeting exon 3 ([…]) and exon 6 ([…]) were purchased from IDT DNA (Table 5). For each gRNA, tracrRNA/crRNA duplexes were formed by combining 10 μL of 100 μM Alt-R […] (IDT), 100 μM Alt-R crRNA (IDT) and heating at 95C for 5 min, then were allowed to cool to room temp for 20 min. RNPs were then formed by combining 75 pmol Cas9 (IDT) with 2.4 μL total of prepared tracrRNA/crRNA complex (1.2 μL for each gRNA targeting each exon). Cells were then trypsinized and resuspended at 10,000,000 cells/mL in 1 mL of Mirus Ingenio electroporation solution. Three μL of 100 μM electroporation enhancer (Mirus) was added, along with 3 μL of RNP solution. Cells were electroporated in 2 mm cuvettes using a BioRad system (190 V, 950 μF, infinite resistance) and were then plated in a T75 flask in full growth medium to allow for recovery. After recovery from electroporation, knockout pools were sorted for single cells in 96-well tissue culture treated plates. Clonal populations which expanded from single cells were then screened for loss of function of VHL by treating with MZ1, or loss of function of CRBN by treating with dBET6, using a HiBiT-BRD4 luminescent readout assay. Genomic DNA isolated from candidate clones was then PCR-amplified (Table of primers below), Gibson-assembled into a pF1A plasmid backbone, transformed into E. coli., and then Sanger sequenced to confirm presence of indels in the targeted exons. […] VHL exon 3 carried a 19 bp deletion on one allele, and a 1 bp insertion on the other allele, both occurring after the premature stop codon in exon 1.

RKO WT cells = test: cells; format: cell-based, human
Description: (§3) RKO WT, VHL KO, CRBN KO and CRBN/VHL dKO cells were cultured in Dulbecco’s modified Eagle’s medium supplemented with 10% FCS and 1% penicillin–streptomycin. RKO CRBN KO and VHL KO were generated previously.[45] RKO CRBN/VHL dKO cells were generated by transiently expressing pSpCas9(BB)-2A-GFP (PX458) (Addgene 48138) loaded with a short guide RNA (sgRNA) targeting VHL (Fwd: […], Rev: […]) in RKO CRBN KO cells. Clones were single cell seeded and checked for VHL and CRBN double deletion via Western blot or PCR on genomic DNA (gDNA).
Cells were seeded in 96-well plates at a cell density of 3750 cells per well and treated for 3 days with DMSO or drug at ten √10 serial diluted concentrations. […] Cell viability was assessed using the CellTiter-Glo assay (CellTiter-Glo Luminescent Cell Viability Assay, Promega G7573) according to manufacturer instructions. Luminescence signal was measured on a Multilabel Plate Reader Platform Victor X3 model 2030 (PerkinElmer). Survival curves and EC50 values were determined using GraphPad Prism v.10.0.3 by fitting a nonlinear regression to the log10-transformed drug concentration and the relative viability after normalization of each data point to the mean luminescence of the lowest drug concentration.

RKO CRBN KO cells = test: Cell viability assay (CellTiter-Glo); format: cell-based, human
Description: as §3
(§4) Cells were seeded in 96-well plates at a cell density of 3750 cells per well and treated for 3 days with DMSO or drug at ten √10 serial diluted concentrations. Starting concentration for all drugs was 10 μM, and each treatment was performed in biological triplicates. Cell viability was assessed using the CellTiter-Glo assay (CellTiter-Glo Luminescent Cell Viability Assay, Promega G7573) according to manufacturer instructions. Luminescence signal was measured on a Multilabel Plate Reader Platform Victor X3 model 2030 (PerkinElmer). Survival curves and EC50 values were determined using GraphPad Prism v.10.0.3 by fitting a nonlinear regression to the log10-transformed drug concentration and the relative viability after normalization of each data point to the mean luminescence of the lowest drug concentration.

RKO CRBN/VHL dKO cells = test: Cell viability assay (CellTiter-Glo); format: cell-based, human; settings: read-out: EC50 RKO CRBN/VHL dKO
Description: as §3, §4

RKO VHL KO cells = test: Cell viability assay (CellTiter-Glo); format: cell-based, human
Description: as §3, §4

K562 cells = test: Cell viability assay (CellTiter-Glo); format: cell-based, human; settings: WT K562, 5.12 pM to 10 uM, n = 3 (Table S4)
Description: as §4, with “[…],” for “3750 cells per well and treated for 3 days with DMSO or drug at ten √10 serial diluted concentrations. Starting concentration for all drugs was 10 μM,”

KBM7 cells = test: Cell viability assay (CellTiter-Glo); format: cell-based, human; settings: WT KBM7, 5.12 pM to 10 uM, n = 3 (Table S4)
Description: as §4, with “[…],” for “3750 cells per well and treated for 3 days with DMSO or drug at ten √10 serial diluted concentrations. Starting concentration for all drugs was 10 μM,”

[1] = Homo sapiens, 72 h, 316 pM to 10 μM, 3 days, n = 6 (Figure 3C, Table S1), read-out: EC50 RKO WT
[2] = Homo sapiens, 72 h, 316 pM to 10 μM, 3 days, n = 6 (Figure 3C, Table S1)

T2 sequence (Q15059 whole entry): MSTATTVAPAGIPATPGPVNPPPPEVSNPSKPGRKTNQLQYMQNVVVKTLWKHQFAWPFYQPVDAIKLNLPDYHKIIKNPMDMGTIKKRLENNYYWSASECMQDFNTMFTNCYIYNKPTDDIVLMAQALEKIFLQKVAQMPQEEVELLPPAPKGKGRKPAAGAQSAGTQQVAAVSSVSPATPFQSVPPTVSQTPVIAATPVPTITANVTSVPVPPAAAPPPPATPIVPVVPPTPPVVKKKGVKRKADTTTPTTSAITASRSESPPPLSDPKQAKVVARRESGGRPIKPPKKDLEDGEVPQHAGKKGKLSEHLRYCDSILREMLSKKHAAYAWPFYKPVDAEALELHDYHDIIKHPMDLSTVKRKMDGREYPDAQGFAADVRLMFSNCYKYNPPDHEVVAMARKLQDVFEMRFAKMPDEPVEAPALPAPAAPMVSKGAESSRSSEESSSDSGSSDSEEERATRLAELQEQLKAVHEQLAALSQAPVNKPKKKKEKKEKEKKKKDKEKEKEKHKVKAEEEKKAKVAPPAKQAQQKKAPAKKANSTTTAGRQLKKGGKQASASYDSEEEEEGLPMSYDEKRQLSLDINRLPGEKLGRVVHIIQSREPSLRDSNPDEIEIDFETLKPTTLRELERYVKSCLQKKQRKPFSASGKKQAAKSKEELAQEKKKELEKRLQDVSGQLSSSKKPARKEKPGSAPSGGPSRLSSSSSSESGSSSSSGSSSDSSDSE
T1 sequence (P25440 whole entry): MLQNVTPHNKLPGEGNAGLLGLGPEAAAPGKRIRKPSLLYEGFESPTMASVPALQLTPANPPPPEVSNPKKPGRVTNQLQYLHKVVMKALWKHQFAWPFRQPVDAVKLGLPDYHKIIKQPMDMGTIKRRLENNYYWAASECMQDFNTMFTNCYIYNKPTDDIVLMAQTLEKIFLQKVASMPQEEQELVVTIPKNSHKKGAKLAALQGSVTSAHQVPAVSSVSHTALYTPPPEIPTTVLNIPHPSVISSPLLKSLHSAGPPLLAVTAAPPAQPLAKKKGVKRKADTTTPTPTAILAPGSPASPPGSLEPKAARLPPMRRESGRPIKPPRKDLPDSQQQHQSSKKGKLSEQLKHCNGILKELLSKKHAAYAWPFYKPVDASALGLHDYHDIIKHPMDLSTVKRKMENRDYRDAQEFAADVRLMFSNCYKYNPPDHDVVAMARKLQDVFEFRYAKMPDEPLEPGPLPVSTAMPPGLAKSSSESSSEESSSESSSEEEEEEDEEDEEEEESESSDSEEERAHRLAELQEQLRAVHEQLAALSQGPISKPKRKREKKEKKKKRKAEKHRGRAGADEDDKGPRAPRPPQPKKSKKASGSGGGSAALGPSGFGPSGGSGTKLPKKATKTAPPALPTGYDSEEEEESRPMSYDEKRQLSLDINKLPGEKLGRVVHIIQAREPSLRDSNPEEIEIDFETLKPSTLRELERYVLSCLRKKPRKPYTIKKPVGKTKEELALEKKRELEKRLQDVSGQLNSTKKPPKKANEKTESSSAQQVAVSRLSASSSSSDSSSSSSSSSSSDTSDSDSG

For `Cc1ncsc1-c1ccc(CNC(=O)[C@@H]2C[C@@H](O)CN2C(=O)[C@@H](NC(=O)COCC(C)(COCCOCCNC(=O)C[C@@H]2N=C(c3ccc(Cl)cc3)c3c(sc(C)c3C)-n3c(C)nnc32)COCCOCCNc2cccc3c2C(=O)N(C2CCC(=O)NC2=O)C3=O)C(C)(C)C)cc1` (stereo partly drawn) [MN675 (2), (2S,4R)-1-((17S)-17-(tert-Butyl)-1-((S)-4-(4-chlorophenyl)-2,3,9-trimethyl-6H-thieno[3,2-f][1,2,4]triazolo[4,3-a][1,4]diazepin-6-yl)-11-((2-(2-((2-(2,6-dioxopiperidin-3-yl)-1,3-dioxoisoindolin-4-yl)amino)ethoxy)ethoxy)methyl)-11-methyl-2,15-dioxo-6,9,13-trioxa-3,16-diazaoctadecan-18-oyl)-4-hydroxy-N-(4-(4-methylthiazol-5-yl)benzyl)pyrrolidine-2-carboxamide], the DC50 (BRD2) was 156 nM, the DC50 (BRD3) was 21 nM and the “fold drop in BRD4 degradation potency (Dmax 50) when CRBN recruitment was outcompeted by pomalidomide” value (BRD4) was 3.6 fold. The pEC50 (BRD4) was 7.26, the pEC50 (RKO WT cells; [1]) was 6.31 and the pEC50 (RKO WT cells; Homo sapiens, WT RKO, 316 pM to 10 μM, n = 3 (Table S4), read-out: EC50 RKO) was 6.35. It also gave a pEC50 (RKO CRBN KO cells; [2]) of 6.22, a pEC50 (RKO CRBN/VHL dKO cells; [2]) of 5.69 and a pEC50 (RKO VHL KO cells; [2]) of 6.06. For the same molecule, the pEC50 (K562 cells; Homo sapiens) was 6.49 and the pEC50 (KBM7 cells; Homo sapiens, KBM-7) was 6.76.
With `Cc1ncsc1-c1ccc(CNC(=O)[C@@H]2C[C@@H](O)CN2C(=O)[C@@H](NC(=O)COCC(C)(COCCOCCOCCNC(=O)C[C@@H]2N=C(c3ccc(Cl)cc3)c3c(sc(C)c3C)-n3c(C)nnc32)COCCOCCOCCNc2cccc3c2C(=O)N(C2CCC(=O)NC2=O)C3=O)C(C)(C)C)cc1` (stereo partly drawn) [MN666 (1), (2S,4R)-1-((20S)-20-(tert-Butyl)-1-((S)-4-(4-chlorophenyl)-2,3,9-trimethyl-6H-thieno[3,2-f][1,2,4]triazolo[4,3-a][1,4]diazepin-6-yl)-14-((2-(2-(2-((2-(2,6-dioxopiperidin-3-yl)-1,3-dioxoisoindolin-4-yl)amino)ethoxy)ethoxy)ethoxy)methyl)-14-methyl-2,18-dioxo-6,9,12,16-tetraoxa-3,19-diazahenicosan-21-oyl)-4-hydroxy-N-(4-(4-methylthiazol-5-yl)benzyl)pyrrolidine-2-carboxamide] the DC50 (BRD2) was 84 nM, the DC50 (BRD3) was 23 nM and the “fold drop in BRD4 degradation potency (Dmax 50) when CRBN recruitment was outcompeted by pomalidomide” value (BRD4) was 5.3 fold. For the same molecule, the pEC50 (BRD4) was 7.43, the pEC50 (RKO WT cells; [1]) was 6.14 and the pEC50 (RKO CRBN KO cells; [2]) was 6.15. The pEC50 (RKO CRBN/VHL dKO cells; [2]) was 5.80 and the pEC50 (RKO VHL KO cells; [2]) was 6.47.
Molecule `Cc1sc2c(c1C)C(c1ccc(Cl)cc1)=N[C@@H](CC(=O)NCCCCCCCCNC(=O)COc1cccc3c1C(=O)N(C1CCC(=O)NC1=O)C3=O)c1nnc(C)n1-2` (some centres unmarked) [dBET6, reference compound] has a pEC50 (RKO WT cells; 316 pM to 10 μM, 3 days, n = 6 (Figure 3C, Table S1), read-out: EC50 RKO WT) of 6.55, a pEC50 (RKO WT cells; 500 pM to 10 μM, 3 days (Figure 10, Table S6), read-out: EC50 RKO WT) of 6.59 and a pEC50 (RKO WT cells; RKO WT, 316 pM to 10 μM, n = 6, combination: dBET6 and MZ1 each from 5 μM (Table S7), read-out: EC50 RKO) of 6.97. The pEC50 (RKO WT cells; WT RKO, 316 pM to 10 μM, n = 3 (Table S4), read-out: EC50 RKO) was 6.57, the pEC50 (RKO CRBN KO cells; Figure 10 experiment) was less than 5.00 and the pEC50 (RKO CRBN/VHL dKO cells; both VHL and CRBN knocked out (Figure 3C)) was less than 5.00. The pEC50 (RKO VHL KO cells; 316 pM to 10 μM, 3 days, n = 6 (Figure 3C, Table S1)) was 6.63, the pEC50 (RKO VHL KO cells; 500 pM to 10 μM, 3 days (Figure 10, Table S6)) was 6.54 and the pEC50 (K562 cells) was 8.19. The pEC50 (KBM7 cells) was 8.43.
